Measured values as given in paper PMC3865801 (Journal of Medicinal Chemistry, 2013).
Read-outs that look alike come from different tables or passages of the source.

Legend:
[1] = Aqueous solubility of parent compound and sodium salt; conditions: aqueous medium (not further specified)
[2] = Toxicity to KHYG-1 NK cells (Trypan blue exclusion); assay type: cell-based, human; conditions: human, KHYG-1 NK cells; 20 μM, 4 h exposure, viability after 24 h, Trypan blue, ± SEM
Experimental: The toxicity assay was carried out in exactly the same manner as the killing assay above, but instead of adding the labeled K562 target cells, 100 μL of RPMI 0.1% BSA was added. Cells were incubated for 4 h at 37 °C and then washed ×3 in RPMI + 0.1% BSA. […] Trypan blue was added to each well. Viable (clear) cells and total (clear + blue) cells were counted, and the percentage of viable cells was calculated compared to DMSO treated cell control (% viability).

[3] = molecular target: T1, purified recombinant perforin (Mus musculus, UniProt P10820); assay: cell-based; assay type: cell-based; conditions: lysis of Jurkat cells by purified recombinant perforin, 51Cr release, 0.1% BSA; average of at least three determinations; read-out: inhibition of Jurkat cell lysis, IC50
T1 sequence (P10820 21-554): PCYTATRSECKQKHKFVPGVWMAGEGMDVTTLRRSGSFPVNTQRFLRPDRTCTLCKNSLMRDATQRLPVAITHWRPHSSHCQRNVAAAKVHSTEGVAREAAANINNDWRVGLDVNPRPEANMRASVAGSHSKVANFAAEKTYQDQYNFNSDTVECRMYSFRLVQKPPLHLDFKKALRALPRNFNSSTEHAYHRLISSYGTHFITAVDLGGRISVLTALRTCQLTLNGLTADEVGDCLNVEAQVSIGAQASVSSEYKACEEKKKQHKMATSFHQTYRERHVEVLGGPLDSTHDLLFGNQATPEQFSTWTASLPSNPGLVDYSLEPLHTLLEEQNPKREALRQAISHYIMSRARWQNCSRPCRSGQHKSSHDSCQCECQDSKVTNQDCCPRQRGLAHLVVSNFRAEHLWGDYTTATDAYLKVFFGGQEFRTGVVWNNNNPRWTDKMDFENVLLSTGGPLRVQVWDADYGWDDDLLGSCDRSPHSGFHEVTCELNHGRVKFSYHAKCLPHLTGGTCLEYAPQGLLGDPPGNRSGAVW
Experimental: The ability of the compounds to inhibit the lysis of nucleated (Jurkat T lymphoma) cells in the presence of 0.1% BSA was measured by release of ^51Cr label. Jurkat target cells were labeled by incubation in medium with 100 μCi ^51Cr for 1 h. The cells were then washed three times to remove unincorporated isotope and resuspended at 1 × 10^5 cells per milliliter in RPMI buffer supplemented with 0.1% BSA. […] Each data point was performed in triplicate, and an IC50 was calculated from the range of concentrations described above.

[4] = molecular target: T2, perforin produced by an intact NK cell line (KHYG-1) (Homo sapiens, UniProt P14222); assay: KHYG-1 cytotoxicity assay: perforin-induced lysis of K562 target cells co-incubated with KHYG-1 NK cells; assay type: cell-based; conditions: 20 μM, K562 targets, ± SEM
T2 construct: the perforin is delivered by a functional NK cell; endogenous in cells; host or cells: KHYG-1 NK cells (K562 target cells)
T2 sequence (P14222 22-555): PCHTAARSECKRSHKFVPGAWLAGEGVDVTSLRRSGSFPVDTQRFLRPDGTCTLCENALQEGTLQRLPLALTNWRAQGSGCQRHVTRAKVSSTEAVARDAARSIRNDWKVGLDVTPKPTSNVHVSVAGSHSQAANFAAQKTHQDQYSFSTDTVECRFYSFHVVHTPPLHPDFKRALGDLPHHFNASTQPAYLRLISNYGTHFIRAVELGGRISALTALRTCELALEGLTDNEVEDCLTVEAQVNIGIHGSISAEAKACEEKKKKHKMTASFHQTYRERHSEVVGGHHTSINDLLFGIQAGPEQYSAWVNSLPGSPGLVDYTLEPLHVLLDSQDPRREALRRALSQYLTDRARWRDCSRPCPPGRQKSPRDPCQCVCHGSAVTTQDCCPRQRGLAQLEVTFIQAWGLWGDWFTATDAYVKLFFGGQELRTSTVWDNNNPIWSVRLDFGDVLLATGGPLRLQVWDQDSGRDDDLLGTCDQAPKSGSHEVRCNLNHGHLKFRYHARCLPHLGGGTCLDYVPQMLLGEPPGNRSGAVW
Experimental: KHYG-1 cells were washed and resuspended in RPMI + 0.1% BSA at 4 × 10^5 cells/mL, and an amount of 50 μL of KHYG-1 cells was dispensed to each well of a 96-well V-bottom plate. RPMI (50 μL) + 0.1% BSA or 10% (final concentration) of serum was added to each well. Then test compounds were added to KHYG-1 cells at various concentrations up to 20 μM and incubated at room temperature for 20 min. 1 × 10^6 K562 target cells were labeled with 75 μCi ^51Cr in 200 μL of RPMI for 90 min at 37 °C. Cells were washed as described above and resuspended in 5 mL of RPMI + 0.1% BSA. […] The percentage of specific cytotoxicity was calculated using the following formula: [drawing 4] and expressed as the mean of triplicate assays ± standard error of the mean.

[5] = 10% mouse serum, read-out: KHYG-1 inhibition (% at 20 μM), 10% serum
[6] = no serum, vs untreated control, read-out: KHYG-1 inhibition (% at 20 μM), no serum

## O=C1NC(=S)N/C1=C/c1ccc(-c2ccc3c(c2)COC3=O)s1 [compound 4]
[1]
  solubility: 23 µg/mL
[2]
  viability at 4 h, 20 µM: 88 ± 3%
[3]
  IC50: 780 nM
[4]; [5]
  inhibition at 20 µM: 38.9 ± 3.5%
[4]; [6]
  inhibition at 20 µM: 53 ± 2.6%

## O=C1NC(=S)N/C1=C/c1ccc(-c2ccc3c(c2)CNC3=O)s1 [compound 118]
[1]
  solubility: 0.54 µg/mL
[2]
  viability at 4 h, 20 µM: 95 ± 3.5%
[3]
  IC50: 2550 nM
[4]; [5]
  inhibition at 20 µM: 55 ± 6.5%
[4]; [6]
  inhibition at 20 µM: 56 ± 7.2%

## CN1Cc2cc(-c3ccc(/C=C4/NC(=S)NC4=O)s3)ccc2C1=O [compound 119, (E,Z)-2-Methyl-5-(5-((5-oxo-2-thioxoimidazolidin-4-ylidene)methyl)thiophen-2-yl)isoindolin-1-one]
[1]
  solubility: 0.13 µg/mL
[2]
  viability at 4 h, 20 µM: 28 ± 1.5%
[4]; [5]
  inhibition at 20 µM: 37 ± 2.4%
[4]; [6]
  inhibition at 20 µM: 42 ± 5.5%

## O=C1NC(=S)N/C1=C/c1ccc(-c2ccc3c(c2)CN(CCO)C3=O)s1 [compound 125, (E,Z)-2-(2-Hydroxyethyl)-5-(5-((5-oxo-2-thioxoimidazolidin-4-ylidene)methyl)thiophen-2-yl)isoindolin-1-one]
[1]
  solubility: 43 µg/mL
[2]
  viability at 4 h, 20 µM: 81 ± 0.5%
[3]
  IC50: 780 nM
[4]; [5]
  inhibition at 20 µM: 24 ± 3.4%
[4]; [6]
  inhibition at 20 µM: 43 ± 5.8%

## O=C1NC(=S)N/C1=C/c1ccc(-c2ccc3c(c2)CN(CCCO)C3=O)s1 [compound 126]
[1]
  solubility: 1.78 µg/mL
[2]
  viability at 4 h, 20 µM: 90 ± 3%
[3]
  IC50: 530 nM
[4]; [5]
  inhibition at 20 µM: 17 ± 3%
[4]; [6]
  inhibition at 20 µM: 48 ± 7.9%

## CCOC(=O)N1Cc2cc(-c3ccc(/C=C4/NC(=S)NC4=O)s3)ccc2C1=O [compound 129]
[1]
  solubility: 0.18 µg/mL
[2]
  viability at 4 h, 20 µM: 93 ± 4.1%
[3]
  IC50: 550 nM
[4]; [5]
  inhibition at 20 µM: 35 ± 9.5%
[4]; [6]
  inhibition at 20 µM: 46 ± 5.9%

## O=C1NC(=O)/C(=C\c2ccc(-c3ccc4c(c3)CNC4=O)s2)N1 [compound 136]
[1]
  solubility: 11.6 µg/mL
[2]
  viability at 4 h, 20 µM: 93 ± 3%
[3]
  IC50: 400 nM
[4]; [5]
  inhibition at 20 µM: 50 ± 7.1%
[4]; [6]
  inhibition at 20 µM: 49 ± 9.8%

## O=C1NC(=S)N/C1=C/c1ccc(-c2ccc3c(c2)C(=O)NCC3)s1 [compound 168]
[1]
  solubility: 0.13 µg/mL
[2]
  viability at 4 h, 20 µM: 87 ± 4.1%
[3]
  IC50: 640 nM
[4]; [5]
  inhibition at 20 µM: 23 ± 7.1%
[4]; [6]
  inhibition at 20 µM: 51 ± 4%

## O=C1NC(=S)N/C1=C/c1ccc(-c2ccc3c(c2)CNC3=O)cn1 [compound 207]
[1]
  solubility: 0.59 µg/mL
[2]
  viability at 4 h, 20 µM: 92 ± 2.6%
[3]
  IC50: 630 nM
[4]; [5]
  inhibition at 20 µM: 13 ± 3.8%
[4]; [6]
  inhibition at 20 µM: 43 ± 5.4%
